Results as given in ChEMBL document CHEMBL1139142, “Discovery of 4-amino-5,6-biaryl-furo[2,3-d]pyrimidines as inhibitors of Lck: development of an expedient and divergent synthetic route and preliminary SAR” (Bioorg Med Chem Lett, 2007).

Key:
Activated CDC42 kinase 1 = Activated CDC42 kinase 1 (Homo sapiens, UniProt Q07912); assay: Inhibition of Ack1
T-cell [1] = assay: Inhibition of T cell activation in human mixed lymphocyte reaction; assay type: functional, cell-based
[2] = target: Tyrosine-protein kinase Lck (Homo sapiens, UniProt P06239); assay: Inhibition of Lck
Tyrosine-protein kinase Lck, sequence (P06239 whole entry): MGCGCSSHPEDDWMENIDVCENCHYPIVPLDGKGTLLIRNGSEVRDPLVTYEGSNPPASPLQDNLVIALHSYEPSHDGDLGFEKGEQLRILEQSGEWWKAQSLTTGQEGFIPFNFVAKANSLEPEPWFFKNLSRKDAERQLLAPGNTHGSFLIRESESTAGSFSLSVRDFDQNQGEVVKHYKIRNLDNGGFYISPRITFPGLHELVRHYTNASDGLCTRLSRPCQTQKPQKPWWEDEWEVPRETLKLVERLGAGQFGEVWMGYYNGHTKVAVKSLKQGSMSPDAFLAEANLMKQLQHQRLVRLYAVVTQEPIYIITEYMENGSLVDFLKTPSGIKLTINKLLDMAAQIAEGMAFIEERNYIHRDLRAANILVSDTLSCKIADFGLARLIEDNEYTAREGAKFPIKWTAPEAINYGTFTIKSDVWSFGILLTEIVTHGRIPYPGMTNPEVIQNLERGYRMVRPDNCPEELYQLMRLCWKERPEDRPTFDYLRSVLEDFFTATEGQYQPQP

T-cell [3] = assay: Inhibition of anti-CD3/CD28-induced IL2 secretion in human T cells; assay type: functional, cell-based
[4] = Clearance in Sprague-Dawley rat at 1 mg/kg, iv; assay type: ADME, organism-based; parameters: dose 1 mg/kg, route intravenous; conditions: in vivo
[5] = AUC (0 to infinity) in Sprague-Dawley rat at 5 mg/kg, po; assay type: ADME, organism-based; parameters: time infinity, dose 5 mg/kg, route oral; conditions: plasma
[6] = Volume of distribution at steady state in Sprague-Dawley rat at 1 mg/kg, iv; assay type: ADME, organism-based; parameters: dose 1 mg/kg, route intravenous; conditions: in vivo, read-out: Vdss
[7] = Half life in Sprague-Dawley rat at 1 mg/kg, iv; assay type: ADME, organism-based; parameters: dose 1 mg/kg, route intravenous; conditions: in vivo
[8] = Oral bioavailability in Sprague-Dawley rat at 5 mg/kg; assay type: ADME, organism-based; conditions: in vivo
[9] = Cmax in Sprague-Dawley rat at 5 mg/kg, po; assay type: ADME, organism-based; parameters: dose 5 mg/kg, route oral; conditions: in vivo
[10] = target: Epidermal growth factor receptor (Homo sapiens, UniProt P00533)
Epidermal growth factor receptor, sequence (P00533 whole entry): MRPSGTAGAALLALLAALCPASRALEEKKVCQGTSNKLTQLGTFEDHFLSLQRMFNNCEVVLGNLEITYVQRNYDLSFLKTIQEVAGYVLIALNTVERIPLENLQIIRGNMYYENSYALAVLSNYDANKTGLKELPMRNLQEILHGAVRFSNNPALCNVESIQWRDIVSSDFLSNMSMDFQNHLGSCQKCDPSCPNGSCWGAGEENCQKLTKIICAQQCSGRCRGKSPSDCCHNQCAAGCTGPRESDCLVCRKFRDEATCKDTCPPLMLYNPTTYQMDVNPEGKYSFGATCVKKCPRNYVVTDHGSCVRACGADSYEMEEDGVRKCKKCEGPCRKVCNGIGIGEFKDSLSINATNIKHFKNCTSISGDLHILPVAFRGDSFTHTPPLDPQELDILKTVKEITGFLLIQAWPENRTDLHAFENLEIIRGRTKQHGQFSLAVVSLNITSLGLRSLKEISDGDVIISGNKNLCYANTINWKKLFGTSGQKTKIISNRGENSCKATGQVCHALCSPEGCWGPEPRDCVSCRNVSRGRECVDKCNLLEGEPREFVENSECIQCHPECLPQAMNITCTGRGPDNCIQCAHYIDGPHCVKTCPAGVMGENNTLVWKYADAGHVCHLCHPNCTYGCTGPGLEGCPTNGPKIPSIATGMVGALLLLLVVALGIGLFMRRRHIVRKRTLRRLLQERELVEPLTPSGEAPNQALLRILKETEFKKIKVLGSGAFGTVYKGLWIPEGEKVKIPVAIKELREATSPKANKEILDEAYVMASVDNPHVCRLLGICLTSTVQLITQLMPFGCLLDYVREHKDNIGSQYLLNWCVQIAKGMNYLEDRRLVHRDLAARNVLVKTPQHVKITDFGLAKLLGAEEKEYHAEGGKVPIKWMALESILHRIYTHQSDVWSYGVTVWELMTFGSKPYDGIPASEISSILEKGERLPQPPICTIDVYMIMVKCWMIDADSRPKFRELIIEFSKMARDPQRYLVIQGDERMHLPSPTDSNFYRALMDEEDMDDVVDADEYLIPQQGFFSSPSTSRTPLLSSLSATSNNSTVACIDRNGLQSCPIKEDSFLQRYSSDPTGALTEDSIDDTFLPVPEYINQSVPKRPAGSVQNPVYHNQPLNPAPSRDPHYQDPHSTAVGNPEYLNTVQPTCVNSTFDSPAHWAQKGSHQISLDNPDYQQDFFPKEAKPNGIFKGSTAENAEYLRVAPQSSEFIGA

[11] = target: Tyrosine-protein kinase JAK2 (Homo sapiens, UniProt O60674); assay: Inhibition of Jak2
[12] = target: Vascular endothelial growth factor receptor 2 (Homo sapiens, UniProt P35968); assay: Inhibition of KDR
Vascular endothelial growth factor receptor 2, sequence (P35968 whole entry): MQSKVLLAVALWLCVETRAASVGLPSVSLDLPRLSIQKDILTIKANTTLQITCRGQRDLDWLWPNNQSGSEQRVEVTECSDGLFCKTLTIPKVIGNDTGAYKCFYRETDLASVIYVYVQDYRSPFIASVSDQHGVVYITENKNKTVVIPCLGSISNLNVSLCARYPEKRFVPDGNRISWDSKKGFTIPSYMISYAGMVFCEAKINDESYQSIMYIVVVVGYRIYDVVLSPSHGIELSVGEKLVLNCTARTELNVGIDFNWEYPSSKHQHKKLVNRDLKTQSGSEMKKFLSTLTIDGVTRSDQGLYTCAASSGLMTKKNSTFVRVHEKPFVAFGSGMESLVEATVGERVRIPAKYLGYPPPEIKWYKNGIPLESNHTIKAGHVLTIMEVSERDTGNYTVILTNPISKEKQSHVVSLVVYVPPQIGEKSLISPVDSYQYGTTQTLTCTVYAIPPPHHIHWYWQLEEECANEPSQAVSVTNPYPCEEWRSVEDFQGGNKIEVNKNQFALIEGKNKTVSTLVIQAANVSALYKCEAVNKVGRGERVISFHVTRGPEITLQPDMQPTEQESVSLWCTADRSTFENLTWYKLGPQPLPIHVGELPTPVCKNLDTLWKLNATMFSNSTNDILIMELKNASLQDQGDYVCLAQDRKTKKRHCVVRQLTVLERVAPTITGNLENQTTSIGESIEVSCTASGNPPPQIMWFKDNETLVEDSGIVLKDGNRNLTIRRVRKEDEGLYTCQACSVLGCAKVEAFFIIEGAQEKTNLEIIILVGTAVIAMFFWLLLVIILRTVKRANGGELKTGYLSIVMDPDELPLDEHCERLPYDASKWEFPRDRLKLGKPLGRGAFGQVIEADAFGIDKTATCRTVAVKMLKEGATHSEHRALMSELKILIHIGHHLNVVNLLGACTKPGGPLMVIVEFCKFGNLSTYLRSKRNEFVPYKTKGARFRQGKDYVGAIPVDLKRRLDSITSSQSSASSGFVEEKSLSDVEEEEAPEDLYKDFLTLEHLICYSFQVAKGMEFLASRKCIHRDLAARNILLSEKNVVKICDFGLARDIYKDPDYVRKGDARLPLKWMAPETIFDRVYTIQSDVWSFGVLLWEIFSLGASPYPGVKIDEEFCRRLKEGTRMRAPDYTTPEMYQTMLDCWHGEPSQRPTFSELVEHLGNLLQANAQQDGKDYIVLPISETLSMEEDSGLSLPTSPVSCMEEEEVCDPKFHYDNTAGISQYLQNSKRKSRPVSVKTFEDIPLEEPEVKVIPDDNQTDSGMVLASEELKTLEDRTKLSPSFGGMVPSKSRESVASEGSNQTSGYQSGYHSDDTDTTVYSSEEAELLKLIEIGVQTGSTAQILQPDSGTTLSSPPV

[13] = target: Proto-oncogene tyrosine-protein kinase Src (Homo sapiens, UniProt P12931); assay: Inhibition of Src
Proto-oncogene tyrosine-protein kinase Src, sequence (P12931 2-536 limits assumed): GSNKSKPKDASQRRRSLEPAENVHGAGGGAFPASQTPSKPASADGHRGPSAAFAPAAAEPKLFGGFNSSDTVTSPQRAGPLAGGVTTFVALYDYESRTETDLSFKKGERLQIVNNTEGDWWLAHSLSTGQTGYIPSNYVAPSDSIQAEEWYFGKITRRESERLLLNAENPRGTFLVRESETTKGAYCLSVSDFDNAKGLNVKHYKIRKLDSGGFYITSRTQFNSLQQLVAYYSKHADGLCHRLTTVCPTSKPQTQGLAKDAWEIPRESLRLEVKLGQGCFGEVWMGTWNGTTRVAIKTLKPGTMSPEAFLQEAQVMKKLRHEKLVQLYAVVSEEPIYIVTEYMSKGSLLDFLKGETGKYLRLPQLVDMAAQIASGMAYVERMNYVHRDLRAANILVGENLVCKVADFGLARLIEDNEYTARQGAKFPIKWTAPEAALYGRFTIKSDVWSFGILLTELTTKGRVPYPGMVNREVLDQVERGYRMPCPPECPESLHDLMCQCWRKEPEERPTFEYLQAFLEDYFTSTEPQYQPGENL

[14] = target: T1, Tyrosine-protein kinase JAK3 (Homo sapiens, UniProt P52333); assay: Inhibition of Jak3
T1 sequence (P52333 whole entry): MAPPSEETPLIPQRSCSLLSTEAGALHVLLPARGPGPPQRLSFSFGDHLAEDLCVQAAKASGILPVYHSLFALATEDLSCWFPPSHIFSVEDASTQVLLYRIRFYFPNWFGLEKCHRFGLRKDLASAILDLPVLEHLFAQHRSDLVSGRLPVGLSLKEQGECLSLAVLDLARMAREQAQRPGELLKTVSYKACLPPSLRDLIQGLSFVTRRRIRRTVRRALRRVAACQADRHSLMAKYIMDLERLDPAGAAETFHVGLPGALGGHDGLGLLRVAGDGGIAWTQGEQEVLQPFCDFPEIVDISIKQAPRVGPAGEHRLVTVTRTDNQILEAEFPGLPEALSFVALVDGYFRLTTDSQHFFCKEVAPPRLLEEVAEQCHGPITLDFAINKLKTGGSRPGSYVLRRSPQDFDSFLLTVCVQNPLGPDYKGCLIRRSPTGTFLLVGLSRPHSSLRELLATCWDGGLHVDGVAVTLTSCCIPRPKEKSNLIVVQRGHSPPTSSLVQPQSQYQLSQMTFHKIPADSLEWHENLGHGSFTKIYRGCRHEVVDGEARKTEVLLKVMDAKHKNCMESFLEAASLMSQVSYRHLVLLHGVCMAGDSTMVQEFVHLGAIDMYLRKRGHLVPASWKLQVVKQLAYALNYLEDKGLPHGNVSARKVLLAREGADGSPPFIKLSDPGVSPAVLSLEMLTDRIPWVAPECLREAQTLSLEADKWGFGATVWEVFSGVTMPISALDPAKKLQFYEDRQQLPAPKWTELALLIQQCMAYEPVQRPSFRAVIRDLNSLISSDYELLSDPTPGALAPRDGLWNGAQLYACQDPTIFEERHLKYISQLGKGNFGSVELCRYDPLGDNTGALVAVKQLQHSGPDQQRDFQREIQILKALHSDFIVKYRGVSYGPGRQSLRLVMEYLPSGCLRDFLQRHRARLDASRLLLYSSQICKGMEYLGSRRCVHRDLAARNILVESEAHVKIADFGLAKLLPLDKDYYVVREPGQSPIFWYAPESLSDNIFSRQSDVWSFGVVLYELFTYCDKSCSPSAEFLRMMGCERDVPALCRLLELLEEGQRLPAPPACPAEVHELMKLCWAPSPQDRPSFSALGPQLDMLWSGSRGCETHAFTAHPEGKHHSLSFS

[15] = Inhibition of IGFR; parameters: species or system Homo sapiens
Angiopoietin-1 receptor = Angiopoietin-1 receptor (Homo sapiens, UniProt Q02763); assay: Inhibition of Tie2
[16] = target: T2, Tyrosine-protein kinase ZAP-70 (Homo sapiens, UniProt P43403); assay: Inhibition of ZAP70
T2 sequence (P43403 whole entry): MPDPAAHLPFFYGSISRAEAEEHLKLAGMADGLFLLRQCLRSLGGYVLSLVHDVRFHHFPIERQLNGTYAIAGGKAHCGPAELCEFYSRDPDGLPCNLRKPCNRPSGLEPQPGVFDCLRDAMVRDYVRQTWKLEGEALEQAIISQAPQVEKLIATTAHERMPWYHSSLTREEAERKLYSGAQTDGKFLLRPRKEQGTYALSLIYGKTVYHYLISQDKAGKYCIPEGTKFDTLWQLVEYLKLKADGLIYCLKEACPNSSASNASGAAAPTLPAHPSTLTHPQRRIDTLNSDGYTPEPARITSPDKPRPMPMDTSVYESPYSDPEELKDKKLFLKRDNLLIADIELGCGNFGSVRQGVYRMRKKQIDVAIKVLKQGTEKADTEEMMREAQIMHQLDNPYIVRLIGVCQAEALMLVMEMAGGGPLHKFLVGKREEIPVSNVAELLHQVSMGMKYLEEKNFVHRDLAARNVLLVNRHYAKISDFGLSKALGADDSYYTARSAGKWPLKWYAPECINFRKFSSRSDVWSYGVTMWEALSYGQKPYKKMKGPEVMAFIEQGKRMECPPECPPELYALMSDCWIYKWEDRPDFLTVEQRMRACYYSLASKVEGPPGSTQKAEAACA

Activated CDC42 kinase 1, sequence (Q07912 whole entry): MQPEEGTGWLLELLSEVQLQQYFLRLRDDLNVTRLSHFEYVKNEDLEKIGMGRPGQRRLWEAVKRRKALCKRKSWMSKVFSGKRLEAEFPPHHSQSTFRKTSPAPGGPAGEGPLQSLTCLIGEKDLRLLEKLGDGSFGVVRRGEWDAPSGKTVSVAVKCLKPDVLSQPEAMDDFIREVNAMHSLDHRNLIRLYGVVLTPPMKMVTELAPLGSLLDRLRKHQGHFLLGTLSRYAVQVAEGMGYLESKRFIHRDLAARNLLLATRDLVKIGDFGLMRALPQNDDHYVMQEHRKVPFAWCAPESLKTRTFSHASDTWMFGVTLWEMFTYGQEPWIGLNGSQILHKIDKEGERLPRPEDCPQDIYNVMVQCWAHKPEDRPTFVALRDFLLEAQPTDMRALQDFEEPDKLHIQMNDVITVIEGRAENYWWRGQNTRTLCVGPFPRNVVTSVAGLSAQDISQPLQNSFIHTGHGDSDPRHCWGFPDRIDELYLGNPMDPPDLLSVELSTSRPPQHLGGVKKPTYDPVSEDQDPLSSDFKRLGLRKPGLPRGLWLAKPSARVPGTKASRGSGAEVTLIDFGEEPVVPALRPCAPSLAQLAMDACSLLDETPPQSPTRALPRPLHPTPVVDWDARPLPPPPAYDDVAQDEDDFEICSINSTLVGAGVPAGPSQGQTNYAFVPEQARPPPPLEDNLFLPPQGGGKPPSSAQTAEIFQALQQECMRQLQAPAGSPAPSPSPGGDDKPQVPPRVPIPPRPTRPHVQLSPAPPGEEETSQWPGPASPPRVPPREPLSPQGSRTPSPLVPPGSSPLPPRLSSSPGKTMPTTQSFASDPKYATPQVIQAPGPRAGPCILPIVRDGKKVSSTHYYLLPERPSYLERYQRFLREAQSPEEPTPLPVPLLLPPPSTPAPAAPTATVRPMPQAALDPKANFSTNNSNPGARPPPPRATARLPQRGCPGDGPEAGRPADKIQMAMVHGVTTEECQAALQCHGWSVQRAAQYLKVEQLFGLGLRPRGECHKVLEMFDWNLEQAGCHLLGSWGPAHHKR

SMILES	IC50 (Activated CDC42 kinase 1) [µM]	IC50 (T-cell [1]) [µM]	IC50 [2] [µM]	IC50 (T-cell [3]) [µM]	other results
c1ccc(-c2oc3ncnc(NC[C@H]4CCCO4)c3c2-c2ccccc2)cc1	0.523	2.13	1.21		
c1ccc(-c2oc3ncnc(NC[C@@H]4CCCO4)c3c2-c2ccccc2)cc1	0.024	8.95	0.122	2.41	
c1ccc(-c2oc3ncnc(NCCN4CCNCC4)c3c2-c2ccccc2)cc1	0.181	1.71		0.69	clearance [4]: 14.8 mL/min/kg; AUC(0-inf) [5]: 1040 ng·h/mL; Vd [6]: 2.77 L/kg; half-life [7]: 2.37 h; bioavailability [8]: 15%; Cmax [9]: 180 ng/mL
c1ccc(-c2c(-c3ccc(OCCN4CCCC4)cc3)oc3ncnc(NCCN4CCNCC4)c23)cc1	0.098	0.227	0.009	0.43	IC50 [10]: 0.397 µM; IC50 [11]: > 8.33 µM; IC50 [12]: 3.1 µM; IC50 [13]: 0.045 µM; IC50 [14]: 0.96 µM; IC50 [15]: 3.15 µM; IC50 (Angiopoietin-1 receptor): > 25 µM; IC50 [16]: 0.992 µM
c1ccc(-c2c(-c3ccc(OCCN4CCCC4)cc3)oc3ncnc(NCCC4CCNCC4)c23)cc1	0.332	2.45	0.014		
CN(C)CCOc1ccc(-c2oc3ncnc(NC[C@@H]4CCCO4)c3c2-c2ccccc2)cc1	0.011	0.464	0.006	0.119	
c1ccc(-c2c(-c3ccc(OCCN4CCCC4)cc3)oc3ncnc(NC[C@@H]4CCCO4)c23)cc1	0.016	0.67	0.011	0.435	
c1ccc(CCNc2ncnc3oc(-c4ccc(OCCN5CCCC5)cc4)c(-c4ccccc4)c23)cc1	0.001	1.67	0.005	5.72	
CN1CCN(Cc2ccc(-c3oc4ncnc(NC[C@@H]5CCCO5)c4c3-c3ccccc3)cc2)CC1	0.007	0.337	0.006	0.293	
CC(C)Nc1ncnc2oc(-c3ccc(OCCN4CCCC4)cc3)c(-c3ccccc3)c12	0.078	0.533	0.036	0.199	IC50 [10]: 1.03 µM; IC50 [11]: 4.89 µM; IC50 [12]: 0.537 µM; IC50 [13]: 0.914 µM; IC50 [14]: 1.43 µM; IC50 [15]: 1.49 µM; IC50 (Angiopoietin-1 receptor): > 8.33 µM; IC50 [16]: 3.27 µM
CCN1CCN(C(=O)c2ccc(-c3oc4ncnc(NC[C@@H]5CCCO5)c4c3-c3ccccc3)cc2)CC1	0.013	0.437	0.011	2.42	
c1ccc(-c2c(-c3ccc(N4CCOCC4)cc3)oc3ncnc(NCCN4CCNCC4)c23)cc1	0.017	0.227	0.011		
CN1CCOc2cc(-c3oc4ncnc(NCCN5CCNCC5)c4c3-c3ccccc3)ccc21	0.097	3.08	0.042		
c1ccc(-c2c(-c3ccc(CN4CCOCC4)cc3)oc3ncnc(NCCN4CCNCC4)c23)cc1	0.091	0.138	0.027		
O=C(c1ccc(-c2oc3ncnc(NCCN4CCNCC4)c3c2-c2ccccc2)cc1)N1CCCCC1	0.085	0.121	0.022		
CN(C)CCOc1ccc(-c2oc3ncnc(NCCN4CCNCC4)c3c2-c2ccccc2)cc1	0.148	0.36	0.014	0.468	
COc1cc(-c2oc3ncnc(NCCN4CCNCC4)c3c2-c2ccccc2)ccc1OCCN1CCCCC1	0.586	3.22	0.022	2.63	
CC(C)(C)Nc1ncnc2oc(-c3ccc(OCCN4CCCC4)cc3)c(-c3ccccc3)c12	0.65	2.38	0.083	3.26	
COc1cc(-c2oc3ncnc(NC[C@@H]4CCCO4)c3c2-c2ccccc2)ccc1OCCN1CCCCC1	0.038	0.825	0.008	0.193	
